Data published in ChEMBL document CHEMBL1137237, “Identification of isothiazole-4-carboxamidines derivatives as a novel class of allosteric MEK1 inhibitors” (Bioorg Med Chem Lett, 2006).

Columns and labels:
[1] = AUC following oral dose; assay type: ADME, organism-based; details: rat, plasma
[2] = AUC following intravenous dose; assay type: ADME, organism-based; details: rat, plasma
[3] = target: T1, Tyrosine-protein kinase receptor UFO (Homo sapiens, UniProt P30530); assay: Inhibition of Axl
T1 sequence (P30530 whole entry): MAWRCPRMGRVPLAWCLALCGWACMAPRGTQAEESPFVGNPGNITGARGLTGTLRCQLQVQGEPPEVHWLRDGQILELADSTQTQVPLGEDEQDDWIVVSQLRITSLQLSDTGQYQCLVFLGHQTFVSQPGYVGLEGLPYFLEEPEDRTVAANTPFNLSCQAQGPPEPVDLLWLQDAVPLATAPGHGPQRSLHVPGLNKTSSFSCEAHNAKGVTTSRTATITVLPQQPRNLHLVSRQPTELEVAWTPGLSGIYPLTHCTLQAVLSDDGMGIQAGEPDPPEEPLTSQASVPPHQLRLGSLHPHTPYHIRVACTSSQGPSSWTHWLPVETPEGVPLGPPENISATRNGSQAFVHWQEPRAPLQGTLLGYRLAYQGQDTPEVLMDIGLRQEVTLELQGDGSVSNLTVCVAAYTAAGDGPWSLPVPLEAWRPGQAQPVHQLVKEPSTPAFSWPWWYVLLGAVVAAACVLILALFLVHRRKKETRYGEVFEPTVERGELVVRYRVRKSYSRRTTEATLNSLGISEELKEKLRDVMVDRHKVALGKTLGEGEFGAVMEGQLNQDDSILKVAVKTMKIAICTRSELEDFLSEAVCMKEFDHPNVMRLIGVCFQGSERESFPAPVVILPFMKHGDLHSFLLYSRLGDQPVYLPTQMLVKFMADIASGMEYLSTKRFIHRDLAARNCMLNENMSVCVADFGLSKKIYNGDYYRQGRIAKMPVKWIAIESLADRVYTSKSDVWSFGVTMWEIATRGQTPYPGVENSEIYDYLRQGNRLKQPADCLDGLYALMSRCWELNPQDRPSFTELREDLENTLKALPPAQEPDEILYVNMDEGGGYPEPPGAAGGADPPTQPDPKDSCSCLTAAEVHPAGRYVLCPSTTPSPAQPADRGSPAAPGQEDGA

[4] = target: T2, Dual specificity mitogen-activated protein kinase kinase 1 (Homo sapiens, UniProt Q02750); assay: Inhibition of MEK-1
T2 sequence (Q02750 whole entry): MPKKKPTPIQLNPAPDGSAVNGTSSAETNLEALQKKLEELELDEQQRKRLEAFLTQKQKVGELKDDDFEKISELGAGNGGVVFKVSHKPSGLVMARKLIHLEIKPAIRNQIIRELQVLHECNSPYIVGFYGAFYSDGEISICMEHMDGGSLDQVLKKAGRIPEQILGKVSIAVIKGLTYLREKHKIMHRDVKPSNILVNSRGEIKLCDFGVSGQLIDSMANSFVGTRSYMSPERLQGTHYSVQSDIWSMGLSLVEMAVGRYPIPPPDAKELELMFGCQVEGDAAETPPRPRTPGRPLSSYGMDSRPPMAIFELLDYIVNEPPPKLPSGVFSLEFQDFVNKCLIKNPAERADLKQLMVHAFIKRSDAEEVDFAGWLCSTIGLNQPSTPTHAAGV

[5] = target: T2, Dual specificity mitogen-activated protein kinase kinase 1; assay: Inhibition of MEK-1 activity
[6] = target: Serine/threonine-protein kinase Chk2 (Homo sapiens, UniProt O96017); assay: Inhibition of CHK2
Chain of Serine/threonine-protein kinase Chk2 (O96017 whole entry): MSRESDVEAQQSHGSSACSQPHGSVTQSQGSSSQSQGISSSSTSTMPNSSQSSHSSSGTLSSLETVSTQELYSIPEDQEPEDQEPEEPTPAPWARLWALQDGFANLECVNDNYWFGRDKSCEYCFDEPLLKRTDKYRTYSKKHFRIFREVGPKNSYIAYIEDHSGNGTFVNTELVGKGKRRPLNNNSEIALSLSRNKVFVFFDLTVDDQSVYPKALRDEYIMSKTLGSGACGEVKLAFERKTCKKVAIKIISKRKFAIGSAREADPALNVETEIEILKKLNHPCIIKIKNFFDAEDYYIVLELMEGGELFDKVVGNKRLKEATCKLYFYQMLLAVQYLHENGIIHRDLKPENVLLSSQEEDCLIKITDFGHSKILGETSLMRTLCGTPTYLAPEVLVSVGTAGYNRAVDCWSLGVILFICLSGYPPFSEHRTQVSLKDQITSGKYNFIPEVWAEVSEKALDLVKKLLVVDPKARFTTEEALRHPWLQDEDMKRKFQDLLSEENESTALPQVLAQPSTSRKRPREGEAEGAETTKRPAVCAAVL

[7] = target: T3, Receptor-type tyrosine-protein kinase FLT3 (Homo sapiens, UniProt P36888); assay: Inhibition of Flt-3
T3 sequence (P36888 whole entry): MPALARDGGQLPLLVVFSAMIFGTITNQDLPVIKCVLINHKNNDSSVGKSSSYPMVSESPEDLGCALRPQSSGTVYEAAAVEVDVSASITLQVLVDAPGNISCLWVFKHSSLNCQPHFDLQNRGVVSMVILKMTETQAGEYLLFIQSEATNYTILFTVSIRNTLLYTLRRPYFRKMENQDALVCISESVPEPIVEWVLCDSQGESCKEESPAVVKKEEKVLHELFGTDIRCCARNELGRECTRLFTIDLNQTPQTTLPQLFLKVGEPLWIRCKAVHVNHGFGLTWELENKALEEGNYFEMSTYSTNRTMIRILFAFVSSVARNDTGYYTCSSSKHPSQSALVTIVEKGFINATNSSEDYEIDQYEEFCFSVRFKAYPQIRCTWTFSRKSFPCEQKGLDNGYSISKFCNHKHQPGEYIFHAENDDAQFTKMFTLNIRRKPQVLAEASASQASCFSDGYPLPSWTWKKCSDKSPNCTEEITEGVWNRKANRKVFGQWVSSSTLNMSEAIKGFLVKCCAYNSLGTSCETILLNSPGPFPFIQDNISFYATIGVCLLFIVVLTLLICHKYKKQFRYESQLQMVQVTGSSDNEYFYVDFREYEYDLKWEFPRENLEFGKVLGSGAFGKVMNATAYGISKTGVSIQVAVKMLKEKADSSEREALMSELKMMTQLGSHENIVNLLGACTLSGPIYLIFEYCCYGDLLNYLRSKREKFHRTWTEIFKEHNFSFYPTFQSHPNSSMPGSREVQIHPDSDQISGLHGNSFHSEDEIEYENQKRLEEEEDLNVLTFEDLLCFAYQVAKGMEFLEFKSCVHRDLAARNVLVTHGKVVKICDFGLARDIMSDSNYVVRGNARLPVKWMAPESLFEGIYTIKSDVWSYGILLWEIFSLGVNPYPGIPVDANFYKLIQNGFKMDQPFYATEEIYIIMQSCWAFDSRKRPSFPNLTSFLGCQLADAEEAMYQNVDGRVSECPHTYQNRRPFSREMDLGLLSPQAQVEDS

[8] = target: T4, Aurora kinase A (Homo sapiens, UniProt O14965); assay: Inhibition of Aurora
T4 sequence (O14965 whole entry): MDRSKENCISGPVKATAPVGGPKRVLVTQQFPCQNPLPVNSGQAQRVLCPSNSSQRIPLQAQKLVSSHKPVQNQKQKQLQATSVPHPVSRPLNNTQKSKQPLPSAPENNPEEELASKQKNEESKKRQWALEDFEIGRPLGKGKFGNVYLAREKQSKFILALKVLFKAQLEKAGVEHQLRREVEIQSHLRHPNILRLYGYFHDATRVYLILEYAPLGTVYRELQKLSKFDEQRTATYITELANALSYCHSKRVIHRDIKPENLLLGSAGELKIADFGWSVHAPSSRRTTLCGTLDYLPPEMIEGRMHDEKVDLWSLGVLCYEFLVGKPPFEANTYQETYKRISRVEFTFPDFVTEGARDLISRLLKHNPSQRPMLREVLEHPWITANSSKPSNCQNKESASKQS

[9] = target: Ribosomal protein S6 kinase (P70S6K) (Homo sapiens, UniProt P23443+Q9UBS0); assay: Inhibition of p70 S6 kinase; assay type: protein-complex assay
Chain of Ribosomal protein S6 kinase (P70S6K) (Q9UBS0 whole entry): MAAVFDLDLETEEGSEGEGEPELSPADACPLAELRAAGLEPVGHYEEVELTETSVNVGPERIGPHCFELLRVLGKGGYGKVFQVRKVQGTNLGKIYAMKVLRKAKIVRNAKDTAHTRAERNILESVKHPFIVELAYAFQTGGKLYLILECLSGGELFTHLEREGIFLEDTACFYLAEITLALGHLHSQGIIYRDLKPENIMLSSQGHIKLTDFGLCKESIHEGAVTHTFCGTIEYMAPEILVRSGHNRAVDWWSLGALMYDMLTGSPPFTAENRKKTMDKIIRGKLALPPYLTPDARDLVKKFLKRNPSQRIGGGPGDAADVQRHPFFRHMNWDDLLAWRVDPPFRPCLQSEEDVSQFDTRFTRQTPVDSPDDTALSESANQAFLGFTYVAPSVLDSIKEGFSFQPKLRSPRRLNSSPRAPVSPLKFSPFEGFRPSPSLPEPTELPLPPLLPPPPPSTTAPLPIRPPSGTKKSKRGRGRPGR
Chain of Ribosomal protein S6 kinase (P70S6K) (P23443 whole entry): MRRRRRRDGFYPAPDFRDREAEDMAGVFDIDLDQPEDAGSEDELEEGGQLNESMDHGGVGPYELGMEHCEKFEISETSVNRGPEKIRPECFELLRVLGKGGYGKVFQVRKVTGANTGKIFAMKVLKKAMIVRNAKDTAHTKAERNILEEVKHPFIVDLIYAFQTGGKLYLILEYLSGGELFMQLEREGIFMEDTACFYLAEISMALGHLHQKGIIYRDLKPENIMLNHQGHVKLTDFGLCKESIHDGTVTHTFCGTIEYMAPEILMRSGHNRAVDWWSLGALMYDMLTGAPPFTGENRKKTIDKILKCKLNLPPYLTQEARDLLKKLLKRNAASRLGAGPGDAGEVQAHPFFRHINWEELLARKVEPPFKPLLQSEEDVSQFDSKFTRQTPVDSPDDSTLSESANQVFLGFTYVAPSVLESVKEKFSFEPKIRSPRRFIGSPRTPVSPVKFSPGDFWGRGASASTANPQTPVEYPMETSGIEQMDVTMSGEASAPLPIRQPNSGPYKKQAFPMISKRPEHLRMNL

[10] = target: T2, Dual specificity mitogen-activated protein kinase kinase 1; assay: Inhibitory activity against MEK-1; assay type: functional

Row | Structure (SMILES) | AUC [1] [ng·h/mL] | further results
1 | CC(C)C(CO)N=C(N)c1c(Nc2ccc(Oc3cc(Cl)ccc3Cl)cc2)s[nH]c1=O (stereo not given) | 22400 | –
2 | CC(CO)/N=C(\N)c1c(O)nsc1Nc1ccc(C(=O)c2ccccc2)cc1 (stereo not given) | 60 | AUC [2]: 2900 ng·h/mL
3 | N=C(NCC1CCCO1)c1c(O)nsc1Nc1ccc(Oc2cc(Cl)ccc2Cl)cc1 (stereo not given) | 425 | –
4 | CC(CO)/N=C(\N)c1c(O)nsc1Nc1ccc(Oc2cccc(Cl)c2Cl)cc1 (stereo not given) | 5260 | –
5 | CC(CO)/N=C(\N)c1c(O)nsc1Nc1ccc(Oc2cc(F)cc(F)c2Cl)c(F)c1 (stereo not given) | 14900 | –
6 | CC(CO)/N=C(\N)c1c(O)nsc1Nc1ccc(C(C)(C)c2ccccc2)cc1 (stereo not given) | 2350 | AUC [2]: 9250 ng·h/mL
7 | CC(CO)/N=C(\N)c1c(O)nsc1Nc1ccc(Oc2ccc(F)cc2Cl)cc1 (stereo not given) | 6260 | –
8 | N/C(=N\N1CCOCC1)c1c(O)nsc1Nc1ccc(Oc2cc(Cl)ccc2Cl)cc1 | 2880 | –
9 | CC(CO)N=C(N)c1c(Nc2ccc(Oc3cccc(C(F)(F)F)c3F)cc2)s[nH]c1=O (stereo not given) | 13000 | –
10 | CC(CO)/N=C(\N)c1c(O)nsc1Nc1ccc(Oc2cc(F)cc(F)c2)cc1 (stereo not given) | 5140 | –
11 | CC(CO)/N=C(\N)c1c(O)nsc1Nc1ccc(Cc2ccccc2)cc1 (stereo not given) | 220 | AUC [2]: 7250 ng·h/mL
12 | CC(CO)NC(=N)c1c(O)nsc1Nc1ccc(Oc2cccc(C(F)(F)F)c2)cc1 (stereo not given) | 28700 | –
13 | CC(CO)/N=C(\N)c1c(O)nsc1Nc1ccc(Oc2cc(F)cc(F)c2Cl)cc1 (stereo not given) | 20300 | –
14 | CC(CO)NC(=N)c1c(O)nsc1Nc1ccc(Oc2cc(F)ccc2Cl)cc1 (stereo not given) | 900 | –
15 | N=C(NCCC(O)CO)c1c(O)nsc1Nc1ccc(Oc2cc(Cl)ccc2Cl)cc1 (stereo not given) | 2020 | –
16 | CCC(CO)/N=C(\N)c1c(O)nsc1Nc1ccc(Oc2cc(Cl)ccc2Cl)cc1 (stereo not given) | 14600 | –
17 | CN1CCN(N=C(N)c2c(Nc3ccc(Oc4cc(Cl)ccc4Cl)cc3)s[nH]c2=O)CC1 | 1980 | –
18 | CC(CO)NC(=N)c1c(O)nsc1Nc1ccc(Oc2cccc(F)c2F)cc1 (stereo not given) | 9430 | –
19 | CC(CO)/N=C(\N)c1c(O)nsc1Nc1ccc(Oc2ccc(F)cc2F)cc1 (stereo not given) | 16500 | –
20 | CC(CO)N=C(N)c1c(Nc2ccc(Oc3cc(Cl)ccc3Cl)cc2)s[nH]c1=O (stereo not given) | 47400 | –
21 | CC(CO)NC(=N)c1c(O)nsc1Nc1ccc(Oc2cc(F)cc(C(F)(F)F)c2)cc1 (stereo not given) | 15400 | –
22 | CC(CO)NC(=N)c1c(O)nsc1Nc1ccc(Oc2cc(Cl)cc(Cl)c2)cc1 (stereo not given) | 11700 | –
23 | CC(CO)/N=C(\N)c1c(O)nsc1Nc1ccc(Oc2cc(Cl)ccc2Cl)c(F)c1 (stereo not given) | 22200 | –
24 | CC(CO)N=C(N)c1c(Nc2ccc(Sc3ccccc3)cc2)s[nH]c1=O (stereo not given) | 265 | AUC [2]: 6900 ng·h/mL

Continued, in another order:

Row | AUC [1] [ng·h/mL] | Structure (SMILES) | further results
25 | 23900 | CC(O)C/N=C(\N)c1c(O)nsc1Nc1ccc(Oc2cc(Cl)ccc2Cl)cc1 (stereo not given) | –
26 | 6860 | NC(=NCCCN1CCOCC1)c1c(Nc2ccc(Oc3cc(Cl)ccc3Cl)cc2)s[nH]c1=O | –
27 | 14600 | NC(=NCCO)c1c(Nc2ccc(Oc3cc(Cl)ccc3Cl)cc2)s[nH]c1=O | –
28 | 4500 | CC(CO)N=C(N)c1c(Nc2ccc(Oc3cccc(C(F)(F)F)c3Cl)c(F)c2)s[nH]c1=O (stereo not given) | –
29 | 1140 | CC(CO)/N=C(\N)c1c(O)nsc1Nc1ccc(Oc2ccccc2)cc1 (stereo not given) | IC50 [3]: 455 nM; IC50 [4]: 26 nM; IC50 [5]: 33 nM; AUC [2]: 8320 ng·h/mL; IC50 [6]: 142 nM; IC50 [7]: 795 nM; IC50 [8]: 260 nM; IC50 [9]: 2620 nM; EC50 [10]: 42 nM
30 | 2420 | CN1CCN(CCC/N=C(\N)c2c(O)nsc2Nc2ccc(Oc3cc(Cl)ccc3Cl)cc2)CC1 | –
31 | 262 | CN1CCN(CC/N=C(\N)c2c(O)nsc2Nc2ccc(Oc3cc(Cl)ccc3Cl)cc2)CC1 | –
32 | 4280 | CC(CO)NC(=N)c1c(O)nsc1Nc1ccc(Oc2cccc(Cl)c2Cl)c(Cl)c1 (stereo not given) | –
33 | 12600 | CC(CO)/N=C(\N)c1c(O)nsc1Nc1ccc(Oc2cccc(Cl)c2F)cc1 (stereo not given) | –
34 | 5690 | CC(CO)N=C(N)c1c(Nc2ccc(Oc3ccc(F)cc3Cl)c(Cl)c2)s[nH]c1=O (stereo not given) | –
35 | 87 | N/C(=N\CCN1CCNC(=O)C1)c1c(O)nsc1Nc1ccc(Oc2cc(Cl)ccc2Cl)cc1 | –
36 | 5710 | CC(CO)NC(=N)c1c(O)nsc1Nc1ccc(Oc2cccc(C(F)(F)F)c2Cl)c(Cl)c1 (stereo not given) | –
37 | 1240 | CC(CO)NC(=N)c1c(O)nsc1Nc1ccc(Nc2ccccc2)cc1 (stereo not given) | IC50 [3]: 389 nM; IC50 [4]: 266 nM; IC50 [5]: 240 nM; AUC [2]: 859 ng·h/mL; IC50 [6]: 13 nM; IC50 [7]: 448 nM; IC50 [8]: 265 nM; IC50 [9]: 1000 nM; EC50 [10]: 45 nM
38 | 617 | N=C(NCCN1CCOCC1)c1c(O)nsc1Nc1ccc(Oc2cc(Cl)ccc2Cl)cc1 | –
39 | 21900 | CC(CO)N=C(N)c1c(Nc2ccc(Oc3cc(C(F)(F)F)ccc3Cl)cc2)s[nH]c1=O (stereo not given) | –
40 | 31300 | CC(CO)N=C(N)c1c(Nc2ccc(Oc3cc(C(F)(F)F)ccc3F)cc2)s[nH]c1=O (stereo not given) | –
41 | 4250 | CC(CO)N=C(N)c1c(Nc2ccc(S(=O)(=O)c3ccccc3)cc2)s[nH]c1=O (stereo not given) | AUC [2]: 8540 ng·h/mL
42 | 12700 | Cc1cc(Oc2ccc(F)cc2Cl)ccc1Nc1snc(O)c1/C(N)=N/C(C)CO (stereo not given) | –
43 | 20400 | CC(CO)NC(=N)c1c(O)nsc1Nc1ccc(Oc2cccc(C(F)(F)F)c2Cl)cc1 (stereo not given) | –
44 | 5100 | NC(=NC(CO)CO)c1c(Nc2ccc(Oc3cc(Cl)ccc3Cl)cc2)s[nH]c1=O | –
45 | 900 | CC(CO)N=C(N)c1c(Nc2ccc(Oc3cccc(N(C)C)c3)cc2)s[nH]c1=O (stereo not given) | –
46 | 26200 | CC(CO)NC(=N)c1c(O)nsc1Nc1ccc(Oc2ccc(Cl)cc2Cl)cc1 (stereo not given) | –
47 | 12500 | NC(=NCC(O)CO)c1c(Nc2ccc(Oc3cc(Cl)ccc3Cl)cc2)s[nH]c1=O (stereo not given) | –
